Results published in US9580465B2, “Tissue protective peptides and peptide analogs for preventing and treating diseases and disorders associated with tissue damage” (ARAIM PHARMACEUTICALS, INC., priority 2008, dated 2017).
Values joined by “and” are separate entries in the source; they are usually repeats but may differ in a detail not shown here. Equal values may be shown once. “Also recorded” adds a separate entry of the source. Square brackets hold non-standard residues; d marks the D form. Ends that are not written are not given here.

How the values were obtained:
pressure ulcer = assay: Decubitus ulcer (pressure sore) assay; format: in vivo, Sprauge-Dawley rats; settings: 30 μg/kg sc daily; compared with all groups; FIG. 20
Protocol: A decubitus ulcer (pressure sore) assay was performed on 24 adult Sprauge-Dawley rats in accordance with the disclosure of Pierce et al., Selective A2A adenosine receptor activation reduces skin pressure ulcer formation and inflammation, Am J Physiol Heart Circ Physiol 281:67-74, 2001. Briefly, a ferromagnetic steel plate was implanted under a dorsal region of the rats skin. A rectangular permanent magnet was applied to the area of the skin under which the plate was implanted in order to compress the skin between the plate and the magnet. This compression reduced the flow of blood to the skin causing ischemia. The rats were subjected to a cycle of ischemia-reperfusion (2 hours ischemia with a 0.5 hour reperfusion) for a 72-hour period. […] Daily the area of the wound on each rat was measured for a period of 12 days.

histamine = assay: Histamine induced wheal formation, peptide given at time of challenge; format: in vivo, Sprague-Dawley rats; settings: 30 μg/kg at time of histamine challenge
Protocol: Under isoflurane anesthesia, 12 Sprague-Dawley rats' abdomens were shaved and depilated. Each rat was then injected intravenously (via internal jugular) with a dilute solution of Evans Blue (30 mg/ml in saline, 1 ml/kg bw). After 5 minutes, 6 small doses of histamine (Histamine diphosphate, 20 microliters administered intradermally) in a rectangular pattern on each rat's abdomen. After fifteen minutes, when the wheal reaches its maximum size the wheal is photographed and the blister area was determined by digital planimetry. To test the efficacy of various peptides, the peptide of interest was administered to the rats intravenously shortly after the histamine injection.
Rats received either saline, Peptide IY (30 μg/kg), Peptide ID (30 μg/kg), or Peptide IW (30 μg/kg) at time of histamine challenge.
Rats received either saline, peptide JA (30 μg/kg), peptide IZ (30 μg/kg), peptide IW (30 μg/kg) or peptide ID (30 μg/kg) at time of histamine challenge.

[1] = tested on: middle cerebral artery occlusion; assay: Middle cerebral artery occlusion model; format: in vivo, Sprague Dawley rats; settings: after MCAO; 2 μg/kg bw i.v. upon reperfusion, then three injections at 2-hour intervals; FIG. 5
Protocol: Sprague Dawley rats (8 per group) are subjected to the following MCAO protocol Surgery was performed in accordance with the teachings of Brines et al, 2000, PNAS USA 97:10526-10531 (hereby incorporated by reference in its entirety. Briefly, the rats are anesthetized with chloral hydrate (400 mg/kg-bw, i.p.), the carotid arteries were visualized, and the right carotid was occluded by two sutures and severed. A burr hole adjacent and rostral to the right orbit allowed visualization of the middle cerebral artery (“MCA”), which was cauterized distal to the rhinal artery. To produce a penumbra (border zone) surrounding this fixed MCA lesion, the contralateral carotid artery was occluded for 1 hour by using […] provided by a fine forceps and then re-opened.
The rats were administered saline, Peptide ID as a single i.v. dose (2 μg/kg bw), or Peptide IX, […], SEQ ID NO: 301), a scrambled version of Peptide IC, SEQ ID NO: 281, as a single Lv. dose (2 μg/kg bw) upon reperfusion, followed by three additional injections at 2-hour intervals. For assessment of injury, rats are subjected to behavioral testing or the volume of the lesion is determined by tetrazolium staining of brain sections performed 24 hours post surgery in accordance with the previously noted protocol.
The volume of the lesion was then determined by tetrazolium staining of brain sections performed 24 hours post surgery.
Rats were also tested in a foot fault behavioral protocol. Rats were tested on an elevated stainless steel grid floor 30 cm×30 cm with grid size of 30 mm according to the protocol of Markgraf et al., 1992, Brain Research 575:238-246 (hereby incorporated by reference in its entirety). When placed on the grid, a rat would attempt to move around and occasionally place a foot, rather than on the grid, through a grid opening (“foot fault”). The number of foot faults was measured for a 1 minute period.
The number of foot faults is indicative of the cognitive impairment of the rats due to the MCAO, the fewer the number of foot faults the less cognitive impairment.

bilateral renal ischemia = assay: Bilateral renal ischemia assay; format: in vivo, C57/BL6 mice
Protocol: Sixty male C57/BL6 mice (˜25 g; Charles River Laboratories) were anesthetized with ketamine (150 mg/kg) and xylazine (15 mg/kg) i.p. Each animal was placed on a homeothermic blanket set at 37° C., and after a mid-line laparotomy, the renal pedicles were clamped for 30 minutes using nontraumatic vascular clamps. Peptide ID was administered at the indicated dose via i.p. Injection at 1 minute, 6 hours, and 12 hours after reperfusion. In a single dose study, the mice received a control (PBS), 1 μg/kg of Peptide IG at 1 minute, 1 μg/kg of Peptide IG at 30 minutes, 1 μg/kg of Peptide ID at 6 hours, or 10 μg/kg of Peptide ID at 6 hours (12 mice per group). In a multiple dose study, the mice received either multiple doses of a control (PBS), 0.1 μg/kg of Peptide ID, 1 μg/kg of Peptide ID, or 10 μg/kg of Peptide ID at 1 minute, 6 hours and 12 hours into reperfusion.
Twenty-four hours later, mice were reanesthetized and blood was obtained by cardiac puncture. Plasma urea and creatine were used as indicators of renal dysfunction and aspartate aminotransferase was used as an indicator of renal injury. Data were analyzed using ANOVA followed by Dunnett's post hoc test comparison.

9 L gliosarcoma cells = assay: 9 L gliosarcoma implantation model, delayed treatment; format: in vivo, CD Fisher rats; settings: 25 nmole/kg i.p. daily starting two weeks after implantation, three weeks, FIG. 13, 14
Protocol: In accordance with the accordance with the protocol of Lampson et al. Cancer Res. 53:176-82:1993 described above, CD Fisher rats were implanted with 9 L gliosarcoma cells transfected with the LacZ gene by use of a Hamilton syringe. 100,000 cells in 10 microliters were injected into the right caudate.
ID with a short plasma half life, another receiving Peptide IW (pegylated form of Peptide IC) and the third group received saline. Peptides were given at a dose of 25 nmole/kg body weight. Three weeks later, the animals were sacrificed and serial 1 mm thick coronal sections cut through the brain and incubated with 5-bromo-4-chloro-3-indolyl-[beta]-D-galactopyranoside (Xgal). Tumor cells (containing the LacZ gene) metabolized Xgal into a dark blue stain, localizing the extent of tumor. High resolution digital images were obtained and the areas stained blue determined using planimetric methodology. Data is expressed as total area of tumor infiltration.

[2] = tested on: cisplatin induced neuropathy; assay: Cisplatin induced peripheral neuropathy (hotplate latency); format: in vivo, rats; settings: CDDT 2 mg/kg i.p. twice a week; peptide 0.4 μg/kg three times a week for 5 weeks; FIG. 11
Protocol: Also, CDDT is known to induce peripheral neuropathy, among other toxicities. Following the experimental design described above for renal function, the ability of Peptide IC to protect against peripheral neuropathy was also evaluated. 2 mg/kg CDDT was administered intraperitoneally, twice a week for 5 weeks. Peptide IC was simultaneously administered at a dose of 0.4 μg/kg, three times a week for 5 weeks. Neuropathy was evaluated by hotplate latency, the delay period between contact of the rat's foot to a warm surface, and the retraction of the foot.

[3] = tested on: cisplatin-induced nephropathy; assay: Cisplatin induced nephropathy; format: in vivo, rats; settings: CDDT 2 mg/kg i.p. twice a week; peptide 0.4 μg/kg three times a week for 5 weeks; FIG. 10
Protocol: Cancer chemotherapeutic agents such as cisplatin (CDDT) are known to induce renal injury among other toxicities. The ability of Peptide IC to protect rats form cisplatin-induced nephropathy was evaluated by administering 2 mg/kg CDDT intraperitoneally, twice a week for 5 weeks. Peptide IC was simultaneously administered at a dose of 0.4 μg/kg, three times a week for 5 weeks. Renal function was evaluated by measuring the volume of urine production.

NAIIKNAYKKG (Beta endorphin derived Peptide IG) [beta endorphin region]
wound (ulcer) size (area) (pressure ulcer): smallest wound size

LSEQARNQSEL [Peptide IX, scrambled version of Peptide IC; called Peptide JA in b476, reference compound]
wheal area (lesion area) (histamine; FIG. 19): about 0.6 cm^2 | number of foot faults in 1 minute period [1]: 20.1±2.1 foot faults

GSWQRSLQDTE (Glucagon derived Peptide IH) [glucagon region]
creatinine, urea and aspartate aminotransferase (biochemical markers of renal dysfunction) (bilateral renal ischemia; multiple doses 1 μg/kg at 1 minute, 6 hours and 12 hours into reperfusion, FIG. 7): reduction in these biochemical markers of renal dysfunction | creatinine, urea and aspartate aminotransferase (biochemical markers of renal dysfunction) (bilateral renal ischemia; multiple doses 10 μg/kg at 1 minute, 6 hours and 12 hours into reperfusion, FIG. 7): reduction in these biochemical markers of renal dysfunction | creatinine, urea and aspartate aminotransferase (biochemical markers of renal dysfunction) (bilateral renal ischemia; single dose 1 μg/kg at 6 hours into reperfusion, 24 hrs of reperfusion, FIG. 6): reduction in these biochemical markers of renal dysfunction | creatinine, urea and aspartate aminotransferase (biochemical markers of renal dysfunction) (bilateral renal ischemia; single dose 10 μg/kg at 6 hours into reperfusion, 24 hrs of reperfusion, FIG. 6): reduction in these biochemical markers of renal dysfunction

PEG-QEQLERALNSS (XEQLERALNSS; PEG; Peptide IW) [pegylated form of Peptide IC, extended half-life peptide]
tumor size (total area of tumor infiltration) (9 L gliosarcoma cells): marked reduction in tumor size; also recorded: exhibited the best outcomes; also recorded: reduction in size of the tumor equivalent to that achieved by immediate treatment with Peptide ID | tumor size (total area of tumor infiltration) (9 L gliosarcoma cells; listed as Peptide 1W): reduced the size of tumor | wheal area (lesion area) (histamine; FIG. 18): ~0.3 cm^2

GLpLSEARNQSEL [Peptide IY, reference compound]
anti-inflammatory activity (histamine; FIG. 18): did not exhibit anti-inflammatory activity | wheal area (lesion area) (histamine; FIG. 18): about 0.6 cm^2

SSNLARELQEQ ([dS][dS][dN][dL][dA][dR][dE][dL][dQ][dE][dQ]; also: retro-inverso) [Peptide IZ, Retro Inverso Peptide IC]
wheal area (lesion area) (histamine; FIG. 19): ~0.4 cm^2 and 0.35 cm^2

QEQLERALNSS (Helix B amino acids derived Peptide IC) [exterior-presenting amino acids of helix B of EPO]
hotplate latency (time to withdraw paw) [2]: prevented the appearance of peripheral neuropathy; also recorded: substantially similar to the control group (PBS) | volume of urine production (renal function) [3]: protected against renal dysfunction due to CDDT; also recorded: substantially like that of the control (PBS) group
